Usually IC50 stands for the point on the concentration scale where inhibition reaches its midpoint. A low value points to higher potency. As usually defined, the inhibition is the change of the read-out against control, counted positive when it falls. Read a high inhibition as a response far below the control.

For one assay, the target named is T1, xanthine oxidase (Bos taurus, UniProt P80457).
T1 construct: purchased Sigma Chemical Company; host or cells: butter milk
Kind of assay: In vitro determination of xanthine oxidase (XOD) inhibition. In kind it is biochemical. The note with it: xanthine oxidase from butter milk, xanthine substrate, pH 7.4, 37° C. On the procedure:
(1) Preparation of test compounds:
Test compounds (compounds of Ex. No. listed in Table 1) were dissolved in dimethylsulfoxide and diluted with a 50 mM phosphate buffer to prepare aqueous solutions respectively having predetermined concentrations.
The inhibition rate was determined by the following equation: [formula]
The inhibition (%) was determined on each test compound prepared according to (1), and the IC50 value on the xanthine oxidase (XOD) inhibition was calculated from the value of inhibition.

In another assay the test system is serum uric acid. Kind of assay: Determination of oral administration: lowering of serum uric acid in mice. In kind it is in vivo, ICR male mice. The note with it: Mus musculus; ICR male mice, oral, 1 mg/kg, 2 hours after administration, serum; read-out: Activity of lowering uric acid. On the procedure:
Test compounds suspended in a 5% gum arabic solution was forcibly administered by oral administration (compounds of Ex. No. of Table 2, dose: 1 mg/kg) to ICR male mice (age: about 7 weeks) (one group: 6 mice) by means of an oral probe. 2 hours after the administration, thoracotomy was conducted under etherization to collect blood from the heart, and serum was removed by a conventional process. The serum uric acid was measured by a biochemical automatic analyzer (Flexigem; Electro-Nucleonics, Inc.) by using a uric acid measurement kit (UA reagent; International Reagent) to determine the percentage of the lowering of uric acid. [formula]

The next assay concerns interleukin 1 production. Kind of assay: Interleukin 1 production inhibitory activity (LPS, abdominal exuded macrophage, ELISA). The assay is classed as cell-based, BALB/c mouse. The note with it: 10^-6 M, 1 μg/ml LPS, 24 hours, mouse macrophage. On the procedure:
1 ml of a 5% oyster glycogen solution was intra-abdominally administered to a BALB/c mouse (male, 8 weeks in age), and 4 days after the administration, the infiltrated abdominal exuded cells were adhered to a plastic dish for 2 hours, and 1 μg/ml of LPS was allowed to act on macrophage (1×10^6 cells). Interleukin 1 extricated on the supernatant in 24 hours was measured by an ELISA technique. The test compound (compounds of Ex. No. described in Table 3) was prepared so as to have a concentration of 10^-6 M, and the interleukin 1 production inhibitory activity was, expressed in terms of the percentage inhibition based on the amount of production of the control.
A general note: In an ELISA, binding on a coated surface is turned into a signal by an enzyme label.

The next assay deals with collagen arthritis. The assay is described as follows: Collagen arthritis inhibitory activity (bovine II type collagen in rats). The note with it: 6 weeks; for Swelling: 5 times per week, right foot volume increase, control 45.5 ± 5.1; for Antibody titer of anti-collagen: serum, ELISA, control 2.04 ± 0.36. In kind it is in vivo, Lewis rats. The protocol:
An emulsion comprising a bovine II type collagen and incomplete Freund's adjuvant in a proportion of 1:1 were intradermally injected to Lewis rats (male, about 6 weeks in age) (one group: 8 […]) at the region of the back so that the amount of antigen was 2 mg/rat, thereby inducing arthritis. The compound of Ex. No. 35 was suspended in a 5% gum arabic solution, and orally administered 5 times per week in two groups of 10 mg/kg and 50 mg/kg from the sensitized day. Only the gum arabic solution was administered to the control. Then 6 weeks after the sensitization, the percentage increase in the volume of the right foot was measured and expressed in terms of the percentage swelling, and the anti-collagen antibody titer of the serum was measured by the ELISA technique.

Molecules are shown by their SMILES. Several values for one entry are separate records, joined by “and”; a condition that tells them apart may be missing. Equal entries are not always repeated.

T1 sequence (P80457 whole entry): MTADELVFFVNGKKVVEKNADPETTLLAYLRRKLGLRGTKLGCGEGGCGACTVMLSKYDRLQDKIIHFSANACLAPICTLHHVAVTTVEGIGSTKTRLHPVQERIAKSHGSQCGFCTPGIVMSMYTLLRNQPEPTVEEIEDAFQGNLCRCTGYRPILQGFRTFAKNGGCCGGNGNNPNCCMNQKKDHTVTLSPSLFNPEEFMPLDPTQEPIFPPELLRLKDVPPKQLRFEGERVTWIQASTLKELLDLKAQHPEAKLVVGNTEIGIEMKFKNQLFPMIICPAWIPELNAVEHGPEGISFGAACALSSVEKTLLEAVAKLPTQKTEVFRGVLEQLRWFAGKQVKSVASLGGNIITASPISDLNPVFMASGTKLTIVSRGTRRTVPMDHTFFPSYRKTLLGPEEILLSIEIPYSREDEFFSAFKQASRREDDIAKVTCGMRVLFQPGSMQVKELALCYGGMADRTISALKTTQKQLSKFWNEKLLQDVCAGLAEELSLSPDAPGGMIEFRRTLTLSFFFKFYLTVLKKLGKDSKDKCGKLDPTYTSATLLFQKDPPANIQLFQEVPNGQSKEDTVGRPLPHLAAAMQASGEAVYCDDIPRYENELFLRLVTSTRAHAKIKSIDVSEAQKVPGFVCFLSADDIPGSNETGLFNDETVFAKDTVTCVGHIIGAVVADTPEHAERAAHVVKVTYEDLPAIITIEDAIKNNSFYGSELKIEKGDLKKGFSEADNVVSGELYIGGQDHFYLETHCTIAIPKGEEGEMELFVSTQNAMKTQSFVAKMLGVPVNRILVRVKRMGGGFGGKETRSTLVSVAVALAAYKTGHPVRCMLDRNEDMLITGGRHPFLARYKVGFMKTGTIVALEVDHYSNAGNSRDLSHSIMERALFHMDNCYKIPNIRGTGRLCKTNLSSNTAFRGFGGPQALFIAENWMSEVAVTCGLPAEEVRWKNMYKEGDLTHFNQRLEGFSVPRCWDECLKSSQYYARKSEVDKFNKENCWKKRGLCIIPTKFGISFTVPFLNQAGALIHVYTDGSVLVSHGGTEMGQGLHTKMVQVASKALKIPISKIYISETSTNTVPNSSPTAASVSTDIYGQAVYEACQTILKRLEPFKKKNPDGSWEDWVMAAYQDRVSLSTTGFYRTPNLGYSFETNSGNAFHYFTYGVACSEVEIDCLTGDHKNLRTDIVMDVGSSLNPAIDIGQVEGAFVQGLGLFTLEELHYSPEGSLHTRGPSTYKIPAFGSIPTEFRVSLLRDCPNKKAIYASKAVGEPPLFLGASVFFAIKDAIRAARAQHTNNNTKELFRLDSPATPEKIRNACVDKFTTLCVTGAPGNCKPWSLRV

In turn, `Cc1ccc(C(=O)c2ccc(-c3nc(C)c(C(=O)O)s3)cc2)cc1` [Example 74, 4-Methyl-2-(4-(4-methylbenzoyl)phenyl)-5-thiazolecarboxylic acid] came in with an IC50 at xanthine oxidase of 4.8 nM. The inhibition in vivo at 1 mg/kg in the assay with serum uric acid is 39%. Moreover, in the assay with interleukin 1 production, the inhibition at 1 µM amounted to 52%.

Turning to `Cc1nc(-c2ccc(OCC(C)C)c(F)c2)sc1C(=O)O` [Example 67, 2-(3-fluoro-4-isobutyloxyphenyl)-4-methyl-5-thiazolecarboxylic acid], 1.5 nM corresponded to half-maximal inhibition against xanthine oxidase (IC50). Further, the inhibition in vivo at 1 mg/kg with serum uric acid worked out at 50%. In addition, the inhibition at 1 µM with interleukin 1 production was 48%.

`Cc1nc(-c2ccc(N3CCOCC3)c([N+](=O)[O-])c2)sc1C(=O)O` [Example 45, 4-methyl-2(4-morpholino-3-nitrophenyl)-5-thiazolecarboxylic acid] had a half-inhibitory concentration (IC50) against xanthine oxidase of 1.8 nM. Moreover, the inhibition in vivo at 1 mg/kg in the assay with serum uric acid worked out at 88%. In the assay with interleukin 1 production, this compound came in with an inhibition at 1 µM of 18%.

The compound `CCOCCOc1ccc(-c2nc(C)c(C(=O)O)s2)cc1Br` [Example 64, 2-(3-Bromo-4-(2-ethoxyethyloxy)phenyl)-4-methyl-5-thiazolecarboxylic acid] came in with a 50% inhibitory concentration (IC50) against xanthine oxidase of 2.9 nM. For the same compound, the inhibition in vivo at 1 mg/kg with serum uric acid is 25%. The compound further had an inhibition at 1 µM in the assay on interleukin 1 production of 28%.

On xanthine oxidase, `Cc1nc(-c2ccc(C(F)(F)F)cc2)sc1C(=O)O` [Example 6, 4-Methyl-2-(4-trifluoromethylphenyl)-5-thiazolecarboxylic acid] came in with an IC50 of 310 nM. Moreover, the inhibition at 1 µM in the assay on interleukin 1 production turned out to be 38%.

The compound `Cc1nc(-c2ccc(OC(C)C)c(Cl)c2)sc1C(=O)O` [Example 50, 2-(3-Chloro-4-isopropoxyphenyl)-4-methyl-5-thiazolecarboxylic acid] had an IC50 on xanthine oxidase of 2.4 nM. Moreover, the inhibition in vivo at 1 mg/kg in the assay with serum uric acid amounted to 20%. For the same compound, the inhibition at 1 µM with interleukin 1 production is 42%.

On xanthine oxidase, `Cc1nc(-c2ccc(OCC3CCCCC3)cc2)sc1C(=O)O` [Example 7, 2-(4-Cyclohexylmethyloxyphenyl)-4-methyl-5-thiazolecarboxylic acid] came in with a half-inhibitory concentration (IC50) of 46 nM. At 1 µM the inhibition with interleukin 1 production was 39%.

At xanthine oxidase, `Cc1nc(-c2cccc(C(=O)Nc3ccc(Cl)cc3)c2)sc1C(=O)O` [Example 15, 2-(3-(4-chlorophenylcarbamoyl)phenyl)-4-methyl-5-thiazolecarboxylic acid] returned an IC50 of 150 nM. In the assay on interleukin 1 production, this compound yielded an inhibition at 1 µM of 38%.

On to `CC(C)Oc1ccc(-c2nc(O)c(C(=O)O)s2)cc1` [Example 22, 4-Hydroxy-2-(4-isopropoxyphenyl)-5-thiazolecarboxylic acid], for which the IC50 against xanthine oxidase turned out to be 45 nM. Moreover, the inhibition at 1 µM in the assay on interleukin 1 production stood at 45%.

In turn, `Cc1nc(-c2cccc(OC(C)C)c2)sc1C(=O)O` [Example 1, 2-(3-isopropoxyphenyl)-4-methyl-5-thiazolecarboxylic acid] gave an IC50 on xanthine oxidase of 67 nM. The inhibition at 1 µM in the assay with interleukin 1 production is 83%.

In turn, `Cc1nc(-c2ccc(OCCC(C)C)c(Cl)c2)sc1C(=O)O` [Example 52, 2-(3-Chloro-4-isopentyloxyphenyl)-4-methyl-5-thiazolecarboxylic acid] displayed an IC50 on xanthine oxidase of 2.7 nM. Also, the inhibition in vivo at 1 mg/kg with serum uric acid came to 47%. Further, testing at 1 µM in the assay with interleukin 1 production gave an inhibition of 33%.

Take `Cc1nc(-c2cccc(C(F)(F)F)c2)sc1C(=O)O` [Example 5, 4-Methyl-2-(3-trifluoromethylphenyl)-5-thiazolecarboxylic acid]: the midpoint of inhibition at xanthine oxidase, the IC50, lay at 0.63 nM. Further, the inhibition in vivo at 1 mg/kg with serum uric acid turned out to be 37%. The same compound showed an inhibition at 1 µM in the assay on interleukin 1 production of 60%.

In turn, `Cc1nc(-c2ccc(N3CCCCC3)c([N+](=O)[O-])c2)sc1C(=O)O` [Example 44, 4-methyl-2-(3-nitro-4-piperidinophenyl)-5-thiazolecarboxylic acid] came in with an IC50 against xanthine oxidase of 1.6 nM. Besides, the inhibition in vivo at 1 mg/kg with serum uric acid was 83%. This compound also gave an inhibition at 1 µM in the assay on interleukin 1 production of 22%.

For `Cc1ccc(C(=O)c2ccc(-c3nc(C)c(C(=O)O)s3)cc2)c(C)c1` [Example 75, 2-(4-(2,4-Dimethylbenzoyl)phenyl)-4-methyl-5-thiazolecarboxylic acid], on xanthine oxidase, the IC50 came out at 0.83 nM. In the assay with serum uric acid, the inhibition in vivo at 1 mg/kg turned out to be 33%. For the same compound, the inhibition at 1 µM in the assay on interleukin 1 production is 48%.

`Cc1nc(-c2ccc(OCC(=O)O)cc2)sc1C(=O)O` [Example 11, 2-(4-Carboxymethyloxyphenyl)-4-methyl-5-thiazolecarboxylic acid]: the midpoint of inhibition against xanthine oxidase, the IC50, lay at 77 nM. The same compound displayed an inhibition at 1 µM in the assay with interleukin 1 production of 23%.

For the compound `Cc1nc(-c2ccc(OCCC(C)C)c([N+](=O)[O-])c2)sc1C(=O)O` [Example 40, 2-(4-Isopentyloxy-3-nitrophenyl)-4-methyl-5-thiazolecarboxylic acid], the IC50 at xanthine oxidase worked out at 0.67 nM. Also, the inhibition in vivo at 1 mg/kg with serum uric acid was 85%. Moreover, at 1 µM the inhibition with interleukin 1 production was 36%.

At xanthine oxidase, `CCOc1ccc(-c2nc(C)c(C(=O)O)s2)cc1Cl` [Example 49, 2-(3-chloro-4-ethoxyphenyl)-4-methyl-5-thiazolecarboxylic acid] had an IC50 of 2.3 nM. For the same compound, the inhibition in vivo at 1 mg/kg in the assay with serum uric acid came out at 35%. In the assay with interleukin 1 production, this compound showed an inhibition at 1 µM of 48%.

Take `Cc1nc(-c2ccc(OCCCCC(=O)O)cc2)sc1C(=O)O` [Example 12, 2-(4-(4-Carboxybutyloxy)phenyl)-4-methyl-5-thiazolecarboxylic acid]: the IC50 on xanthine oxidase came to 12 nM. In the assay on interleukin 1 production, this compound gave an inhibition at 1 µM of 42%.

`Cc1nc(-c2ccc(C(=O)O)cc2)sc1C(=O)O` [Example 14, 2-(4-Carboxyphenyl)-4-methyl-5-thiazolecarboxylic acid] showed an IC50 against xanthine oxidase of 3.2 nM. Moreover, the inhibition at 1 µM in the assay with interleukin 1 production came out at 35%.

At xanthine oxidase, `Cc1nc(-c2cc(Cl)c(O)c(Cl)c2)sc1C(=O)O` [Example 28, 2-(3,5-Dichloro-4-hydroxyphenyl)-4-methyl-5-thiazolecarboxylic acid] had an IC50 of 26 nM. Further, the inhibition at 1 µM with interleukin 1 production amounted to 52%.

The compound `Cc1nc(-c2ccc(OCc3ccc(F)cc3)c(Cl)c2)sc1C(=O)O` [Example 58, 2-(3-Chloro-4-(4-fluorobenzyloxy)phenyl)-4-methyl-5-thiazolecarboxylic acid] came in with an IC50 on xanthine oxidase of 3.4 nM. Also, in the assay on serum uric acid, the inhibition in vivo at 1 mg/kg came to 18%. Moreover, testing at 1 µM in the assay on interleukin 1 production gave an inhibition of 19%.

Consider `Cc1nc(-c2ccc(OCC(C)(C)C)c([N+](=O)[O-])c2)sc1C(=O)O` [Example 43, 2-(4-neopentyloxy-3-nitrophenyl)-4-methyl-5-thiazolecarboxylic acid], for which inhibition on xanthine oxidase was half-maximal at 0.64 nM (IC50). Also, in the assay on serum uric acid, the inhibition in vivo at 1 mg/kg was 85%. 1 µM produced 39% inhibition with interleukin 1 production.

Take `Cc1nc(-c2ccc(C(=O)c3ccccc3)cc2)sc1C(=O)O` [Example 20, 2-(4-Benzoylphenyl)-4-methyl-5-thiazolecarboxylic acid]: the IC50 against xanthine oxidase is 6 nM and 6.2 nM. The inhibition in vivo at 1 mg/kg in the assay on serum uric acid was 18%. Besides, the inhibition at 1 µM in the assay with interleukin 1 production came out at 65%. Further, the Swelling in the assay with collagen arthritis (10 mg/kg oral, *P < 0.05) came to 25.4 ± 5.3%; with collagen arthritis (50 mg/kg oral, **P < 0.01), 21.2 ± 4.2%. Besides, the “Antibody titer of anti-collagen” value was 1.88 ± 0.20 μU/ml with collagen arthritis (10 mg/kg oral) and 1.68 ± 0.32 μU/ml with collagen arthritis (50 mg/kg oral).

Turning to `Cc1nc(-c2cc(C(F)(F)F)cc(C(F)(F)F)c2)sc1C(=O)O` [Example 26, 2-(3,5-Bistrifluoromethylphenyl)-4-methyl-5-thiazolecarboxylic acid], 5.7 nM corresponded to half-maximal inhibition on xanthine oxidase (IC50). Besides, the inhibition in vivo at 1 mg/kg with serum uric acid was 63%. Also, testing at 1 µM with interleukin 1 production gave an inhibition of 57%.

(Values after patent publication US5614520A, “2-arylthiazole derivatives and pharmaceutical composition thereof” (priority 1990, dated 1997).)
